Values quoted from earlier work in patent publication US8334001B2, “Composition comprising mucilaginous polysaccharides derived from aloe barbadensis and method for obtaining same and use thereof” (Pharmabrand S.A., priority 2007, dated 2012).
Where two headings read alike, the source gives them in different places.

Tests used:
[1] = test system: necrosis factor, kappa B
[2] = test system: TNF-alfa

Substance	activation of the necrosis factor, kappa B ([1]; concentration of 200 μg/ml)	activation of the necrosis factor, kappa B ([1]; concentrations of only 0.015% of the aloeride)	effect on TNF-alfa [2]
acemannan	produces an activation	–	–
aloeride	–	the effect is shown	increases
